Experimental data: ChEMBL document CHEMBL3297717, “Synthesis and potent ionophoric activity of a squaramide-linked bis(choloyl) conjugate” (Bioorg Med Chem Lett, 2014)
The source made the active and inactive calls. The calls are words filed in the database; no cut-off is given here.

How the values were obtained:
[1] = Ionophoric activity across egg-yolk L-alpha-phosphatidylcholine-based liposomal membrane assessed as induction of pH discharge in membrane by measuring initial rate constant after 21 mins by Hill plot analysis
[2] = Ionophoric activity across egg-yolk L-alpha-phosphatidylcholine-based liposomal membrane assessed as induction of pH discharge in membrane at 3 mol% after 20 mins by pyramine dye-based fluorescence assay in presence of LiCl
[3] = Ionophoric activity across egg-yolk L-alpha-phosphatidylcholine-based liposomal membrane assessed as induction of pH discharge in membrane at 3 mol% after 20 mins by pyramine dye-based fluorescence assay in presence of RbCl
[4] = Ionophoric activity across egg-yolk L-alpha-phosphatidylcholine-based liposomal membrane assessed as induction of pH discharge in membrane at 3 mol% after 20 mins by pyramine dye-based fluorescence assay in presence of NaBr
[5] = Ionophoric activity across egg-yolk L-alpha-phosphatidylcholine-based liposomal membrane assessed as induction of pH discharge in membrane at 1 to 5 mol% after 21 mins by pyramine dye-based fluorescence assay
[6] = Ionophoric activity across egg-yolk L-alpha-phosphatidylcholine-based liposomal membrane assessed as induction of pH discharge in membrane at 3 mol% after 20 mins by pyramine dye-based fluorescence assay in presence of NaNO3
[7] = Ionophoric activity across egg-yolk L-alpha-phosphatidylcholine-based liposomal membrane assessed as induction of pH discharge in membrane after 21 mins by pyramine dye-based fluorescence assay
[8] = Ionophoric activity across egg-yolk L-alpha-phosphatidylcholine-based liposomal membrane dispersed in HEPES buffer containing Na2SO4 assessed as chloride efflux at 3 mol% after 5 mins
[9] = Ionophoric activity across egg-yolk L-alpha-phosphatidylcholine-based liposomal membrane assessed as induction of pH discharge in membrane at 3 mol% after 20 mins by pyramine dye-based fluorescence assay in presence of NaCl
[10] = Ionophoric activity across egg-yolk L-alpha-phosphatidylcholine-based liposomal membrane assessed as induction of pH discharge in membrane at 3 mol% after 20 mins by pyramine dye-based fluorescence assay in presence of CsCl
[11] = Ionophoric activity across egg-yolk L-alpha-phosphatidylcholine-based liposomal membrane assessed as induction of pH discharge in membrane at 3 mol% after 20 mins by pyramine dye-based fluorescence assay in presence of KCl
[12] = Ionophoric activity across egg-yolk L-alpha-phosphatidylcholine-based liposomal membrane assessed as chloride efflux after 5 mins
[13] = Ionophoric activity across egg-yolk L-alpha-phosphatidylcholine-based liposomal membrane assessed as induction of pH discharge in membrane at 3 mol% after 20 mins by pyramine dye-based fluorescence assay in presence of NaI

Structure (SMILES) | Kin [1] | Activity [2] | Activity [3] | Activity [4] | Activity [5] | Activity [6] | EC50 [7] [mol%] | Activity [8] | Activity [9] | Activity [10] | Activity [11] | Activity [12] | Activity [13]
C[C@H](CCC(=O)NCc1ccc(CNC(=O)CC[C@@H](C)[C@H]2CC[C@H]3[C@@H]4[C@H](O)C[C@@H]5C[C@H](O)CC[C@]5(C)[C@H]4C[C@H](O)[C@]23C)cc1)[C@H]1CC[C@H]2[C@@H]3[C@H](O)C[C@@H]4C[C@H](O)CC[C@]4(C)[C@H]3C[C@H](O)[C@]12C | 2.23 ×10⁻² /min | – | – | – | – | – | – | – | – | – | – | – | –
C[C@H](CCC(=O)N[C@@H](CCCCN)C(=O)NCc1ccc(CNC(=O)[C@H](CCCCN)NC(=O)CC[C@@H](C)[C@H]2CC[C@H]3[C@@H]4[C@H](O)C[C@@H]5C[C@H](O)CC[C@]5(C)[C@H]4C[C@H](O)[C@]23C)cc1)[C@H]1CC[C@H]2[C@@H]3[C@H](O)C[C@@H]4C[C@H](O)CC[C@]4(C)[C@H]3C[C@H](O)[C@]12C | 5.52 ×10⁻² /min | – | – | – | – | – | – | – | – | – | – | – | –
C[C@H](CCC(=O)Nc1ccc(Nc2c(Nc3ccc(NC(=O)CC[C@@H](C)[C@H]4CC[C@H]5[C@@H]6[C@H](O)C[C@@H]7C[C@H](O)CC[C@]7(C)[C@H]6C[C@H](O)[C@]45C)cc3)c(=O)c2=O)cc1)[C@H]1CC[C@H]2[C@@H]3[C@H](O)C[C@@H]4C[C@H](O)CC[C@]4(C)[C@H]3C[C@H](O)[C@]12C | 0.6 min⁻¹ | Active | Active | inactive | Active | inactive | 3.82 | Active | Active | Active | Active | Dose-dependent effect | inactive
